Experimental data published in PubChem BioAssay AID1963836 (Molecular Pharmacology Branch, DTP, NCI, 2024).

System: 857933-349-R-J2-PDC complex spheroid viability
Assay: Anticancer human tumor 857933-349-R-J2-PDC patient-derived colon adenocarcinoma cell line growth inhibition [POLQ]
Settings: for IC50: curve of first compound; for viability, T/C: stronger effect = lower value; active = viability on the fitted dose curve at most 10% of control; inactive = the rest
Protocol: Multicellular complex tumor spheroid response to Polymerase (POL) inhibitors (novobiocin, ART-558, RP6685) in combination with a variety of drugs and investigational agents in selected tumor cell lines
The POL inhibitors (novobiocin, ART-558, and RP6685) were evaluated both individually and in combination with standard of care and investigational anticancer small molecules within a complex spheroid model of solid tumors. . Complex spheroids include a stromal component modeled by human endothelial cells (HUVEC) and fibroblasts modeled by human mesenchymal stem cells (MSCs). The concentration ranges selected for each drug and investigational agent were based upon clinically achievable concentrations if the clinical Cmax of the agent was known.
Compounds. The drugs and investigational agents: novobiocin (NSC847541), ART-558 (NSC835418), RP-6685 (NSC848927), peposertib (NSC802822), ceralasertib (NSC780249), elimusertib (NSC800525), camonsertib (NSC841442), AZD-1390 (NSC803789), olaparib (NSC753686), talazoparib (NSC767125), rucaparib (NSC756644), sotorasib (NSC818433), MRTX-1133 (NSC836407), SN-38 (NSC673596), topotecan (NSC609699), epotoside (NSC141540), doxorubicin (NSC123127), gemcitabine (NSC613327), 5-fluorouracil (NSC19893), paclitaxel (NSC125973), vemurafenib (NSC761431), MSA-2 (NSC828583), SN-011 (NSC837082), adavosertib (NSC754352), prexasertib (NSC758257), carboplatin (NSC241240) and oxaliplatin (NSC266046), were obtained from the National Cancer Institute (NCI) Developmental Therapeutics Program Chemical Repository (21). The FDA-approved anticancer drug set is available from the Developmental Therapeutics Program at https://dtp.cancer.gov/organization/dscb/obtaining/. […] The stock solutions were prepared in dimethyl sulfoxide (DMSO, Sigma-Aldrich, St. Louis, MO, cat. D2650), except for the platinum compounds which were prepared in saline (Quality Biological, Gaithersburg, MD, cat. 114-055-101), at 800-fold the tested concentration and stored at -70 degrees C prior to their use. All drugs and investigational agents were tested over a range starting from a high concentration at or near the clinical Cmax and decreasing in half-log increments. If the clinical Cmax for an agent had not been determined, the highest concentration tested was 10 microM, except for SN-38, which was tested at a high concentration of 1 microM.
Cell Culture. All cells were maintained in an incubator at 37 degrees C and 5% CO2 with 95% humidity. The PDC lines were cultured according to standard operating procedures established by the NCI PDMR (https://pdmr.cancer.gov). Table 3 of the manuscript, lists the cell lines along with the number of the three cell types plated to form the mct-spheroids and media for tumor cell growth. After thawing, all PDC lines, except 997537-175-T-J1-PDC and 415267-285-R-J2-PDC, were cultured in Matrigel-coated flasks prepared with a working solution of 1X Ham's F-12 nutrient mix, without supplementation (Thermo Fisher Scientific, cat. 11765054), 100 U/mL penicillin-streptomycin (Thermo Fisher Scientific, cat. 15140122), and 2.5% Matrigel (Corning Inc., Corning, NY, cat. 354248) for the first three passages. The two PDC lines 997537-175-T-J1-PDC and 415267-285-R-J2-PDC were cultured on uncoated flasks. The 857933-349-R-J2-PDC line was cultured in 6C/Colon 1B media containing advanced DMEM/F-12 (Thermo Fisher Scientific, cat. 12634028), 10 mM HEPES (Thermo Fisher Scientific, cat. 15630080), 1X GlutaMAX supplement (Thermo Fisher Scientific, cat. 35050061), 0.1 mg/mL primocin (InvivoGen, San Diego, CA, cat. ant-pm-2), 10% defined fetal bovine serum, heat inactivated (HyClone Laboratories Inc., Logan, UT, cat. SH30070.03HI), 50% L-WRN conditioned media (ATCC, cat. CRL-3276), 1.25 mM N-Acetyl-L-cysteine (Sigma-Aldrich, cat. A9165), 10 mM nicotinamide (Sigma-Aldrich, cat. N0636), 1X B-27 supplement (Thermo Fisher Scientific, cat. 17504044), 1X N-2 supplement (Thermo Fisher Scientific, cat. […]

[1] = second compound 0.0316 µM, first compound 0.0316 µM
[2] = second compound 0.0316 µM, first compound 0.1 µM
[3] = second compound 0.0316 µM, first compound 0.316 µM
[4] = second compound 0.0316 µM, first compound 1 µM
[5] = second compound 0.0316 µM, first compound 3.16 µM
[6] = second compound 0.0316 µM, first compound 10 µM
[7] = second compound 0.1 µM, first compound 0.0316 µM
[8] = second compound 0.1 µM, first compound 0.1 µM
[9] = second compound 0.1 µM, first compound 0.316 µM
[10] = second compound 0.1 µM, first compound 1 µM
[11] = second compound 0.1 µM, first compound 3.16 µM
[12] = second compound 0.1 µM, first compound 10 µM
[13] = second compound 0.316 µM, first compound 0.0316 µM
[14] = second compound 0.316 µM, first compound 0.1 µM
[15] = second compound 0.316 µM, first compound 0.316 µM
[16] = second compound 0.316 µM, first compound 1 µM
[17] = second compound 0.316 µM, first compound 3.16 µM
[18] = second compound 0.316 µM, first compound 10 µM
[19] = second compound 1 µM, first compound 0.0316 µM
[20] = second compound 1 µM, first compound 0.1 µM
[21] = second compound 1 µM, first compound 0.316 µM
[22] = second compound 1 µM, first compound 1 µM
[23] = second compound 1 µM, first compound 3.16 µM
[24] = second compound 1 µM, first compound 10 µM
[25] = second compound 3.16 µM, first compound 0.0316 µM
[26] = second compound 3.16 µM, first compound 0.1 µM
[27] = second compound 3.16 µM, first compound 0.316 µM
[28] = second compound 3.16 µM, first compound 1 µM
[29] = second compound 3.16 µM, first compound 3.16 µM
[30] = second compound 3.16 µM, first compound 10 µM
[31] = second compound 10 µM, first compound 0.0316 µM
[32] = second compound 10 µM, first compound 0.1 µM
[33] = second compound 10 µM, first compound 0.316 µM
[34] = second compound 10 µM, first compound 1 µM
[35] = second compound 10 µM, first compound 3.16 µM
[36] = second compound 10 µM, first compound 10 µM
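Also: spheroids exposed to compounds for seven days before readout.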

C=CC(=O)N1CCN(c2nc(=O)n(-c3c(C)ccnc3C(C)C)c3nc(-c4c(O)cccc4F)c(F)cc23)C(C)C1 (stereo unspecified) + Nc1ccc(C#CCN(C(=O)Cc2ncc(C(F)(F)F)cc2C(F)(F)F)c2ccc(F)cc2)nn1
> 10 µM: IC50 (second compound 0.0316 µM) | IC50 (second compound 0.1 µM) | IC50 (second compound 0.316 µM) | IC50 (second compound 1 µM) | IC50 (second compound 3.16 µM) | IC50 (second compound 10 µM)
inactive: viability, T/C [1] 90.6% | viability, T/C [2] 101% | viability, T/C [3] 113% | viability, T/C [4] 98.6% | viability, T/C [5] 113% | viability, T/C [6] 87.6% | viability, T/C [7] 99.3% | viability, T/C [8] 90.7% | viability, T/C [9] 105% | viability, T/C [10] 100% | viability, T/C [11] 98.9% | viability, T/C [12] 95.5% | viability, T/C [13] 107% | viability, T/C [14] 98.5% | viability, T/C [15] 98.3% | viability, T/C [16] 112% | viability, T/C [17] 93.1% | viability, T/C [18] 83.5% | viability, T/C [19] 111% | viability, T/C [20] 107% | viability, T/C [21] 97.6% | viability, T/C [22] 100% | viability, T/C [23] 110% | viability, T/C [24] 97.2% | viability, T/C [25] 103% | viability, T/C [26] 88.8% | viability, T/C [27] 96.4% | viability, T/C [28] 101% | viability, T/C [29] 108% | viability, T/C [30] 98.5% | viability, T/C [31] 81.2% | viability, T/C [32] 101% | viability, T/C [33] 98.9% | viability, T/C [34] 92.6% | viability, T/C [35] 112% | viability, T/C [36] 95.3%

CCc1c2c(nc3ccc(O)cc13)-c1cc3c(c(=O)n1C2)COC(=O)[C@]3(O)CC + Nc1ccc(C#CCN(C(=O)Cc2ncc(C(F)(F)F)cc2C(F)(F)F)c2ccc(F)cc2)nn1
0.0149 µM: IC50 (second compound 0.0316 µM)
active: viability, T/C [3] 10.8% | viability, T/C [4] 2.67% | viability, T/C [8] 14.3% | viability, T/C [9] 9.81% | viability, T/C [10] 2.89% | viability, T/C [15] 9.84% | viability, T/C [16] 1.82% | viability, T/C [21] 8.49% | viability, T/C [22] 2.23% | viability, T/C [27] 12.5% | viability, T/C [28] 3.21% | viability, T/C [34] 5.79%
0.0127 µM: IC50 (second compound 1 µM) | IC50 (second compound 10 µM)
0.0136 µM: IC50 (second compound 0.1 µM)
0.0109 µM: IC50 (second compound 0.316 µM)
inactive: viability, T/C (second compound 0.0316 µM, first compound 0.00316 µM) 65.4% | viability, T/C (second compound 0.0316 µM, first compound 0.01 µM) 63.6% | viability, T/C [1] 27.2% | viability, T/C [2] 18.6% | viability, T/C (second compound 0.1 µM, first compound 0.00316 µM) 64.9% | viability, T/C (second compound 0.1 µM, first compound 0.01 µM) 60.5% | viability, T/C [7] 23.2% | viability, T/C (second compound 0.316 µM, first compound 0.00316 µM) 68% | viability, T/C (second compound 0.316 µM, first compound 0.01 µM) 53.6% | viability, T/C [13] 21.7% | viability, T/C [14] 14.7% | viability, T/C (second compound 1 µM, first compound 0.00316 µM) 68.1% | viability, T/C (second compound 1 µM, first compound 0.01 µM) 58.1% | viability, T/C [19] 24.9% | viability, T/C [20] 15.6% | viability, T/C (second compound 3.16 µM, first compound 0.00316 µM) 66.2% | viability, T/C (second compound 3.16 µM, first compound 0.01 µM) 58.9% | viability, T/C [25] 27.4% | viability, T/C [26] 17.6% | viability, T/C (second compound 10 µM, first compound 0.00316 µM) 70.2% | viability, T/C (second compound 10 µM, first compound 0.01 µM) 57.9% | viability, T/C [31] 25.9% | viability, T/C [32] 20.9% | viability, T/C [33] 12.7%
0.0132 µM: IC50 (second compound 3.16 µM)

COc1cc(C2c3cc4c(cc3C(OC3OC5COC(C)OC5C(O)C3O)C3COC(=O)C23)OCO4)cc(OC)c1O (stereo unspecified) + Nc1ccc(C#CCN(C(=O)Cc2ncc(C(F)(F)F)cc2C(F)(F)F)c2ccc(F)cc2)nn1
0.747 µM: IC50 (second compound 0.1 µM)
inactive: viability, T/C [1] 97.1% | viability, T/C [2] 64.8% | viability, T/C [3] 64.5% | viability, T/C [4] 64% | viability, T/C [5] 38% | viability, T/C [6] 25.9% | viability, T/C [7] 92.5% | viability, T/C [8] 72.5% | viability, T/C [9] 53.6% | viability, T/C [10] 52.3% | viability, T/C [11] 36.8% | viability, T/C [12] 22.1% | viability, T/C [13] 94.2% | viability, T/C [14] 68.4% | viability, T/C [15] 53.5% | viability, T/C [16] 50.6% | viability, T/C [17] 35.9% | viability, T/C [18] 25.3% | viability, T/C [19] 101% | viability, T/C [20] 68% | viability, T/C [21] 54.3% | viability, T/C [22] 51.9% | viability, T/C [23] 33.3% | viability, T/C [24] 31.5% | viability, T/C [25] 85.3% | viability, T/C [26] 74% | viability, T/C [27] 53% | viability, T/C [28] 44.6% | viability, T/C [29] 31% | viability, T/C [30] 27.6% | viability, T/C [31] 88% | viability, T/C [32] 71.5% | viability, T/C [33] 60% | viability, T/C [34] 43.1% | viability, T/C [35] 34.1% | viability, T/C [36] 32.2%
0.567 µM: IC50 (second compound 0.316 µM)
0.512 µM: IC50 (second compound 3.16 µM)
0.532 µM: IC50 (second compound 1 µM)
1.29 µM: IC50 (second compound 0.0316 µM)
0.599 µM: IC50 (second compound 10 µM)
